What follows are compounds tested against T1, acetylcholinesterase (AChE) isolated from Electrophorus electricus (Electrophorus electricus, UniProt O42275) (assay: biochemical). Conditions: AChE IC50.
T1 construct: AChE isolated from Electrophorus electricus; from tissue
T1 sequence (O42275 24-633): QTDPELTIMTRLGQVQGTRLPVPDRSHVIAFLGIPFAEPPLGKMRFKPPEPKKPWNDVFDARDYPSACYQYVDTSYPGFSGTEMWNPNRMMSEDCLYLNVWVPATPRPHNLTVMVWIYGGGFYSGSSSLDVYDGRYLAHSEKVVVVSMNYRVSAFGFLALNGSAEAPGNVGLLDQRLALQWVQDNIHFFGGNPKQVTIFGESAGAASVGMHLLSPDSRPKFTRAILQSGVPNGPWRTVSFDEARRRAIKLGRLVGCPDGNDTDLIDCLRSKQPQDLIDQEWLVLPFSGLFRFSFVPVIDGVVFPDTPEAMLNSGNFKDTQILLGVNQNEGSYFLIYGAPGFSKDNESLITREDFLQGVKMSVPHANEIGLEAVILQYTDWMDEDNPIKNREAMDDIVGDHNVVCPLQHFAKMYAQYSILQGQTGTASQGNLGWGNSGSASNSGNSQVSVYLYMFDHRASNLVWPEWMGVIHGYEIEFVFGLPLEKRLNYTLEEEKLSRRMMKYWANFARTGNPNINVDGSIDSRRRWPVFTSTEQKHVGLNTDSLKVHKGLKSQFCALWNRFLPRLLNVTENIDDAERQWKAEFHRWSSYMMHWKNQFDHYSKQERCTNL
Work on `CC(C)C1=N[C@H]2CC=C3C[C@H]4C(=O)C[C@]5(C)[C@@H]([C@H](C)N(C)C)[C@H](OC(=O)C(C)(C)C)C[C@@]5(C)[C@@H]4CC[C@H]3[C@]2(C)CO1` [Compound 39, (20S)-10(9->1)abeo-20-dimethylamino-4β,14α-dimethyl-16α-pivalyl-(2′-isopropyl-3,29-dihydro-4H-[1,3]-oxazine)-5α,9β-pregn-1(10)-en-11-one] yielded an IC50 of 198 nM.
`CC(=O)O[C@@H]1C[C@@]2(C)[C@@H]3CC[C@@H]4C(=CC[C@@H]5N=C(C(C)C)OC[C@]54C)C[C@H]3C(=O)C[C@]2(C)[C@H]1[C@H](C)N(C)C` [Compound 40] showed an IC50 of 112 nM.
`CC(C)C(=O)N[C@H]1CCC23C[C@]24C(=O)C[C@]2(C)[C@@H]([C@H](C)N(C)C)[C@H](O)C[C@@]2(C)[C@@H]4CC[C@H]3[C@]1(C)CN` (stereo partly drawn) [Compound 49, (20S)-20-dimethylamino-3β-(isobutyrylamino)-9,19-cyclo-4α-aminomethyl-4β,14α-dimethyl-5α,9β-pregnan-16α-ol-11-one] gave an IC50 of 1340 nM.
`CC(C)C1=NC2CCC34C[C@]35C(=O)C[C@]3(C)[C@@H]([C@H](C)N(C)C)[C@H](O)C[C@@]3(C)[C@@H]5CC[C@H]4[C@]2(C)CN1` (stereo partly drawn) [Compound 51, (20S)-20-dimethylamino-9,19-cyclo-4β,14α-dimethyl-(2-isopropyl-5β-methyl-1,4,5,6-tetrahydro-pyrimidin-5-yl)-5α,9β-pregnan-16α-ol-11-one] gave an IC50 of 18 nM.

Same assay, conditions: AChE isolated from Electrophorus electricus; read-out: AChE IC50
With `C[C@@H]([C@H]1[C@H](O)C[C@@]2(C)[C@@H]3CC[C@@H]4C5(CC[C@H](NC(=O)Cc6ccccc6)[C@@]4(C)CO)C[C@@]35C(=O)C[C@]12C)N(C)C` (stereo partly drawn) [Compound 6g, (20S)-9,19-cyclo-4α-hydroxymethyl-4,14α-dimethyl-20-dimethylamino-3 (phenylacetylamino)-5α,9-pregnan-16α-ol-11-one] the IC50 was > 5000 nM.
In the case of `CC1=N[C@H]2CC=C3C[C@H]4C(=O)C[C@]5(C)[C@@H]([C@H](C)N(C)C)[C@H](O)C[C@@]5(C)[C@@H]4CC[C@H]3[C@]2(C)CO1` [Compound 8a, (20S)-10(9->1)abeo-4,14α-dimethyl-20-dimethylamino(2′-methyl-4′,4′-dihydro[3′,1′]oxazin)-5α,9-pregn-1(10)-en-16α-ol-11-one], the IC50 is reported as 676 nM.
With `CC(C)[C@H]1N[C@H]2CC=C3C[C@H]4C(=O)C[C@]5(C)[C@@H]([C@H](C)N(C)C)[C@H](O)C[C@@]5(C)[C@@H]4CC[C@H]3[C@]2(C)CO1` [Compound 12, (20S)-10(9->1)abeo-4,14α-dimethyl-20-dimethylamino(2′β-isopropyl-1′,2′,4′,4′-tetrahydro[3′,1′]oxazin)-5α,9-pregn-1(10)-en-16α-ol-11-one] the IC50 was 823 nM.
In the case of `CN[C@@H](C)[C@H]1[C@H](O)C[C@@]2(C)[C@@H]3CC[C@@H]4C(=CCC5N=C(C(C)C)OC[C@]54C)C[C@H]3C(=O)C[C@]12C` (stereo partly drawn) [Compound 33, (20S)-10(9->1)abeo-20-methylamino-4β,14α-dimethyl-(2′-isopropyl-3,29-dihydro-4H-[1,3]-oxazine)-5α,9β-pregn-1(10)-en-16α-ol-11-one], the IC50 is reported as 106 nM.
For `CC(C)C(=O)N[C@H]1CCC23C[C@@]24[C@@H](CC[C@H]3[C@]1(C)CO)[C@]1(C)C[C@@H](O)[C@H]([C@H](C)N(C)C)[C@@]1(C)C[C@@H]4O` (stereo partly drawn) [Compound 34, (20S)-20-dimethylamino-3β-(isobutyrylamino)-9,19-cyclo-4α-hydroxymethyl-4β,14α-dimethyl-5α,9β-pregnan-11β,16α-diol-11-one], the IC50 was > 100000 nM.
`CC[C@H](C)C(=O)N[C@H]1CCC23C[C@@]24[C@@H](CC[C@H]3[C@]1(C)CO)[C@]1(C)C[C@@H](O)[C@H]([C@H](C)N(C)C)[C@@]1(C)C[C@@H]4O` (stereo partly drawn) [Compound 35, (20S)-20-dimethylamino-3β-((S)-2-methylbutyrylamino)-9,19-cyclo-4α-hydroxymethyl-4β,14α-dimethyl-5α,9β-pregnan-11β,16α-diol-11-one] was tested, and the IC50 was > 100000 nM.
`Cc1ccc(S(=O)(=O)O[C@@H]2C[C@@]3(C)[C@@H]4CC[C@@H]5C6(CC[C@H](NC(=O)C(C)C)[C@@]5(C)CO)C[C@@]46C(=O)C[C@]3(C)[C@H]2[C@H](C)N(C)C)cc1` (stereo partly drawn) [Compound 36, (20S)-3β-isobutyrylamino-20-dimethylamino-9,19-cyclo-4β,14α-dimethyl-4α-hydroxymethyl-16α-tosyl-5α,9β-pregnan-11-one] was tested, and the IC50 was > 100000 nM.
`CC(C)C(=O)N[C@H]1CCC23C[C@]24C(=O)C[C@]2(C)[C@@H]([C@H](C)N(C)C)[C@H](OS(C)(=O)=O)C[C@@]2(C)[C@@H]4CC[C@H]3[C@]1(C)CO` (stereo partly drawn) [Compound 37, (20S)-3β-isobutyrylamino-20-dimethylamino-9,19-cyclo-4β,14α-dimethyl-4α-hydroxymethyl-16α-mesyl-5α,9β-pregnan-11-one] was tested, and the IC50 was ≥ 100000 nM.
In the case of `CC(C)C1=N[C@H]2CCC34C[C@]35C(=O)C[C@]3(C)[C@@H]([C@H](C)N(C)C)[C@H](OC(=O)C(C)(C)C)C[C@@]3(C)[C@@H]5CC[C@H]4[C@]2(C)CO1` (stereo partly drawn) [Compound 38, (20S)-20-dimethylamino-9,19-cyclo-4β,14α-dimethyl-16α-pivalyl-(2′-isopropyl-3,29-dihydro-4H-[1,3]-oxazine)-5α,9β-pregn-11-one], the IC50 is reported as 181 nM.
For `CC(=O)OC[C@]1(C)[C@@H](NC(=O)C(C)C)CCC23C[C@]24C(=O)C[C@]2(C)[C@@H]([C@H](C)N(C)C)[C@H](O)C[C@@]2(C)[C@@H]4CC[C@H]31` (stereo partly drawn) [Compound 41, (20S)-3β-isobutyrylamino-20-dimethylamino-9,19-cyclo-4β,14α-dimethyl-4α-acetylmethyl-5α,9β-pregnan-16α-ol-11-one], the IC50 was > 100000 nM.
With `CC(=O)OC[C@]1(C)[C@@H](NC(=O)C(C)C)CCC23C[C@]24C(=O)C[C@]2(C)[C@@H]([C@H](C)N(C)C)[C@H](OC(C)=O)C[C@@]2(C)[C@@H]4CC[C@H]31` (stereo partly drawn) [Compound 42, (20S)-16α-acetyl-3β-isobutyrylamino-20-dimethylamino-9,19-cyclo-4β,14α-dimethyl-4α-acetylmethyl-5α,9β-pregnan-11-one] the IC50 was > 100000 nM.
In the case of `CN[C@@H](C)[C@H]1[C@H](OC(=O)C(C)(C)C)C[C@@]2(C)[C@@H]3CC[C@@H]4C5(CC[C@H](NC(=O)C(C)C)[C@@]4(C)C=O)C[C@@]35C(=O)C[C@]12C` (stereo partly drawn) [Compound 43, (20S)-3β-isobutyrylamino-20-methylamino-9,19-cyclo-4β,14α-dimethyl-4α-formyl-16α-pivalyl-5α,9β-pregnan-11-one], the IC50 is reported as > 100000 nM.
In the case of `CC(C)C(=O)N[C@H]1CCC23C[C@]24C(=O)C[C@]2(C)[C@@H]([C@H](C)N(C)C)[C@H](O)C[C@@]2(C)[C@@H]4CC[C@H]3[C@]1(C)C=O` (stereo partly drawn) [Compound 44, (20S)-3β-isobutyrylamino-20-dimethylamino-9,19-cyclo-4β,14α-dimethyl-4α-formyl-5α,9β-pregnan-16α-ol-11-one], the IC50 is reported as > 100000 nM.
For `CC(C)C(=O)N[C@H]1CCC23C[C@]24C(=O)C[C@]2(C)[C@@H]([C@H](C)N(C)C)[C@H](O)C[C@@]2(C)[C@@H]4CC[C@H]3[C@]1(C)/C=N/Cc1ccccc1` (stereo partly drawn) [Compound 45, (20S)-20-dimethylamino-3β-(isobutyrylamino)-9,19-cyclo-4α-benzyliminomethyl-4β,14α-dimethyl-5α,9β-pregnan-16α-ol-11-one], the IC50 was > 100000 nM.
With `CC(C)C(=O)N[C@H]1CCC23C[C@]24C(=O)C[C@]2(C)[C@@H]([C@H](C)N(C)C)[C@H](O)C[C@@]2(C)[C@@H]4CC[C@H]3[C@]1(C)CNCc1ccccc1` (stereo partly drawn) [Compound 46, (20S)-20-dimethylamino-3β-(isobutyrylamino)-9,19-cyclo-4α-benzylaminomethyl-4β,14α-dimethyl-5α,9β-pregnan-16α-ol-11-one] the IC50 was 33900 nM.
With `CC(C)C(=O)N[C@H]1CCC23C[C@]24C(=O)C[C@]2(C)[C@@H]([C@H](C)N(C)C)[C@H](OC(=O)C(C)(C)C)C[C@@]2(C)[C@@H]4CC[C@H]3[C@]1(C)CNCc1ccccc1` (stereo partly drawn) [Compound 47, (20S)-3β-isobutyrylamino-20-dimethylamino-9,19-cyclo-4α-benzylaminomethyl-4β,14α-dimethyl-16α-pivalyl-5α,9β-pregnan-11-one] the IC50 was 20100 nM.
In the case of `CC(C)C(=O)NC1CCC23C[C@]24C(=O)C[C@]2(C)[C@@H]([C@H](C)N(C)C)[C@H](OC(=O)C(C)(C)C)C[C@@]2(C)[C@@H]4CC[C@H]3[C@]1(C)CN` (stereo partly drawn) [Compound 50, (20S)-3β-isobutyrylamino-20-dimethylamino-9,19-cyclo-4α-aminomethyl-4β,14α-dimethyl-16α-pivalyl-5α,9β-pregnan-11-one], the IC50 is reported as 1330 nM.
With `CC(C)C1=NC2CCC34C[C@]35C(=O)C[C@]3(C)[C@@H]([C@H](C)N(C)C)[C@H](OC(=O)C(C)(C)C)C[C@@]3(C)[C@@H]5CC[C@H]4[C@]2(C)CN1` (stereo partly drawn) [Compound 52, (20S)-20-dimethylamino-9,19-cyclo-4β,14α-dimethyl-16α-pivalyl-(2′-isopropyl-1′/3′,3,29-tetrahydropyrimidine)-5α,9β-pregnan-11-one] the IC50 was 29 nM.
`CC(C)C(=O)N[C@H]1CCC23C[C@]24C(=O)C[C@]2(C)[C@@H]([C@H](C)N(C)C)[C@H](OC(=O)C(C)(C)C)C[C@@]2(C)[C@@H]4CC[C@H]3[C@]1(C)/C=N/C([Si](C)(C)C)[Si](C)(C)C` (stereo partly drawn) [Compound 54, (20S)-3β-isobutyrylamino-20-dimethylamino-9,19-cyclo-4β,14α-dimethyl-4α-(bis-(trimethylsilanyl)methylimino)methyl-16α-pivalyl-5α,9β-pregnan-11-one] was tested, and the IC50 was > 100000 nM.

Same assay, conditions: read-out: AChE IC50
With `C[C@@H]([C@H]1[C@H](O)C[C@@]2(C)[C@@H]3CC[C@@H]4C(=CC[C@@H]5N=C(c6ccccc6)OC[C@]54C)C[C@H]3C(=O)C[C@]12C)N(C)C` [Compound 8b, (20S)-10(9->1)abeo-4,14α-dimethyl-20-dimethylamino(2′-phenyl-4′,4′-dihydro[3′,1′]oxazin)-5α,9-pregn-1(10)-en-16α-ol-11-one] the IC50 was 7650 nM.
